This note sets out measurements from patent US10821115B2, “Compounds that inhibit Mcl-1 protein” (priority 2017, dated 2020).

Broadly, the IC50 is the concentration needed to halve the response being measured.

Molecules are shown by their SMILES. Where two headings read alike, the source gives them in different places.

The test system of assay [1] is human multiple myeloma cell line, OPM-2. The assay is described as follows: Cell viability assay (OPM-2 10 FBS), CellTiter-Glo. It counts as cell-based. In a few lines: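 Cells were seeded at 3000 cells/well in RPMI 1640 with 10% FBS and exposed to serially diluted compounds for 16 h at 37 °C, 5% CO2.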
(In ATP-based viability assays light output follows the ATP content of the culture.)

In assay [2] the target is recombinant human Mcl-1 (residues 171-327) / Bim interaction (Homo sapiens (Human), UniProt Q07820). The assay is described as follows: biochemical. It is filed as binding. The conditions noted are these: read-out: Mcl-1 HTRF IC50. For orientation: Time-resolved FRET reads energy transfer from a long-lived donor to a nearby acceptor.
Sequence of recombinant human Mcl-1 (residues 171-327) / Bim interaction (Q07820 171-327): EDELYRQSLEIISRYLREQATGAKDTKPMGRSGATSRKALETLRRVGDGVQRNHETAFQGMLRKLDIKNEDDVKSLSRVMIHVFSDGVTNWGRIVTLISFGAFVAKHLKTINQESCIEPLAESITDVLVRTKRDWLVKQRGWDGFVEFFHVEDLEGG
Setting [3] is: Homo sapiens, OPM-2, 16 h, read-out: OPM-2 10% FBS IC50 IP, OPM-2 cells, 10% FBS, 16 h, CellTiter-Glo.
Setting [4] is: TR-FRET, Mcl-1(171-327) / biotin-Bim (51-76).
[5] abbreviates: read-out: OPM-2 10% FBS IC50 IP, OPM-2 cells, 10% FBS, 16 h, CellTiter-Glo.
[6] abbreviates: Homo sapiens, OPM-2, 16 h, read-out: OPM-2 10% FBS IC50 IP, OPM-2 cells, 10% FBS, 16 h incubation.
[7] abbreviates: 0.1 nM Mcl-1(171-327), 0.05 nM biotin-Bim (51-76).

Turning to `C[C@@H]1[C@@H](C)C/C=C/[C@@](O)(C(F)(F)F)[C@@H]2CC[C@H]2CN2C[C@@]3(CCCc4cc(Cl)ccc43)COc3ccc(cc32)C(=O)NS1(=O)=O` [Example 100045, (1S,3′R,6′R,7′S,8′E,11′S,12′R)-6-chloro-7′-hydroxy-11′,12′-dimethyl-7′-(trifluoromethyl)-3,4-dihydro-2H,15′H-spiro[naphthalene-1,22′-[20]oxa[13]thia[1,14]diazatetracyclo [14.7.2.0~3,6~.0~19,24~]pentacosa[8,16,18,24]tetraen]-15′-one 13′,13′-dioxide], the IC50 in assay [1] (setting [3]) was 342 nM; in assay [2] (setting [4]), 0.308 nM.

For `C[C@@H]1[C@@H](C)CCCC2(OCCO2)[C@@H]2CC[C@H]2CN2C[C@@]3(CCCc4cc(Cl)ccc43)COc3ccc(cc32)C(=O)NS1(=O)=O` [Example 100102, (3′R,6′R,11′S,12′R,22′S)-6″-chloro-11′,12′-dimethyl-3″,4″-dihydro-2″H,15′H-dispiro[1,3-dioxolane-2,7′-[20]oxa[13]thia[1,14]diazatetracyclo [14.7.2.0~3,6~.0~19,24~]pentacosa[16,18,24]triene-22′,1″-naphthalen]-15′-one 13′,13′-dioxide], the IC50 in assay [1] (setting [3]) is 1430 nM; in assay [2] (setting [4]), 0.99 nM.

As to `CO[C@@]1(CC(=O)N(C)C)/C=C/C[C@H](C)[C@@H](C)S(=O)(=O)NC(=O)c2ccc3c(c2)N(C[C@@H]2CC[C@H]21)C[C@@]1(CCCc2cc(Cl)ccc21)CO3` [Example 100002, 2-((1 S,3′R,6′R,7′S,8′E,11′S, 12′R)-6-chloro-7′-methoxy-11′,12′-dimethyl-13′,13′-dioxido-15′-oxo-3,4-dihydro-2H-spiro[naphthalene-1,22′-[20]oxa[13]thia[1,14]diazatetracyclo[14.7.2.0-3,6˜.0˜19,24˜]pentacosa[8,16,18,24]tetraen]-7′-yl)-N,N-dimethylacetamide], the IC50 in assay [1] (setting [5]) worked out at 41 nM; in assay [2] (setting [4]), 0.071 nM.

Regarding `C[C@@H]1[C@@H](C)C/C=C/[C@@](O)(C#CCCN2CCOCC2)[C@@H]2CC[C@H]2CN2C[C@@]3(CCCc4cc(Cl)ccc43)COc3ccc(cc32)C(=O)NS1(=O)=O` (single isomer, unassigned) [Example 100017], the IC50 in assay [1] (setting [5]) stood at 40 nM; in assay [2] (setting [4]) it was 0.039 nM.

In the case of `CO[C@]1(CCO)/C=C/C[C@H](C)[C@@H](C)S(=O)(=O)NC(=O)c2ccc3c(c2)N(C[C@@H]2CC[C@H]21)C[C@@]1(CCCc2cc(Cl)ccc21)CO3` [Example 100217, (1S,3′R,6′R,7′R,8′E,11′S,12′R)-6-chloro-7′-(2-hydroxyethyl)-7′-methoxy-11′,12′-dimethyl-3,4-dihydro-2H,15′H-spiro[naphthalene-1,22′-[20]oxa[13]thia[1,14]diazatetracyclo [14.7.2.0~3,6~.0~19,24~]pentacosa[8,16,18,24]tetraen]-15′-one 13′,13′-dioxide], the values for the IC50 in assay [1] (setting [3]) and in assay [2] (setting [4]) were 130 nM and 0.183 nM, respectively.

`COC1CCN(C[C@]2(OC)/C=C/C[C@H](C)[C@@H](C)S(=O)(=O)NC(=O)c3ccc4c(c3)N(C[C@@H]3CC[C@H]32)C[C@@]2(CCCc3cc(Cl)ccc32)CO4)CC1` [Example 117, (1S,3′R,6′R,7′S,8′E,11′S,12′R)-6-chloro-7′-methoxy-7′-((4-methoxy-1-piperidinyl)methyl)-11′,12′-dimethyl-3,4-dihydro-2H,15′H-spiro[naphthalene-1,22′-[20]oxa[13]thia[1,14]diazatetracyclo [14.7.2.0~3,6~.0~19,24~]pentacosa[8,16,18,24]tetraen]-15′-one 13′,13′-dioxide]: the results for the IC50 in assay [1] (setting [6]) and in assay [2] (setting [7]) were 358 nM and 0.352 nM, respectively.

Turning to `CNC(=O)C[C@]1(O)CCC[C@H](C)[C@@H](C)S(=O)(=O)NC(=O)c2ccc3c(c2)N(C[C@@H]2CC[C@H]21)C[C@@]1(CCCc2cc(Cl)ccc21)CO3` [Example 100098, 2-((1S,3′R,6′R,7′R,11′S,12′R)-6-chloro-7′-hydroxy-11′,12′-dimethyl-13′,13′-dioxido-15′-oxo-3,4-dihydro-2H-spiro[naphthalene-1,22′-[20]oxa[13]thia[1,14]diazatetracyclo [14.7.2.0~3,6~.0~19,24~]pentacosa[16,18,24]trien]-7′-yl)-N-methylacetamide], the IC50 in assay [1] (setting [3]) was found to be 748 nM; in assay [2] (setting [4]), 0.231 nM.

On to `CO[C@@]1(CN2CCN(c3ccc(B(O)O)c(C(C)=O)c3)CC2)/C=C/C[C@H](C)[C@@H](C)S(=O)(=O)NC(=O)c2ccc3c(c2)N(C[C@@H]2CC[C@H]21)C[C@@]1(CCCc2cc(Cl)ccc21)CO3` [Example 296, (2-acetyl-4-(4-(((1S,3′R,6′R,7′S,8′E,11′S, 12′R)-6-chloro-7′-methoxy-11′,12′-dimethyl-13′,13′-dioxido-15′-oxo-3,4-dihydro-2H-spiro[naphthalene-1,22′-[20]oxa[13]thia[1,14]diazatetracyclo [14.7.2.0~3,6~.0~19,24~]pentacosa[8,16,18,24]tetraen]-7′-yl)methyl)-1-piperazinyl)phenyl)boronic acid], for which the figures for the concentration for half-maximal inhibition (IC50) in assay [1] (setting [6]) and in assay [2] (setting [7]) were 1310 nM and 0.211 nM, respectively.

In the case of `CO[C@]1(CS(C)(=O)=O)/C=C/C[C@H](C)[C@@H](C)S(=O)(=O)NC(=O)c2ccc3c(c2)N(C[C@@H]2CC[C@H]21)C[C@@]1(CCCc2cc(Cl)ccc21)CO3` [Example 100492, (1S,3′R,6′R,7′R,8′E,11′S,12′R)-6-chloro-7′-methoxy-11′,12′-dimethyl-7′-((methylsulfonyl)methyl)-3,4-dihydro-2H,15′H-spiro[naphthalene-1,22′-[20]oxa[13]thia[1,14]diazatetracyclo [14.7.2.0~3,6~.0~19,24~]pentacosa[8,16,18,24]tetraen]-15′-one 13′,13′-dioxide], the concentration for half-maximal inhibition (IC50) in assay [1] (setting [3]) came out at 436 nM; in assay [2] (setting [4]), 0.749 nM.

As for `C[C@@H]1[C@@H](C)C/C=C/[C@@](O)(C#CCN2CCCCC2)[C@@H]2CC[C@H]2CN2C[C@@]3(CCCc4cc(Cl)ccc43)COc3ccc(cc32)C(=O)NS1(=O)=O` [Example 100421, (1S,3′R,6′R,7′S,8′E,11′S,12′R)-6-chloro-7′-hydroxy-11′,12′-dimethyl-7′-(3-(1-piperidinyl)-1-propyn-1-yl)-3,4-dihydro-2H,15′H-spiro[naphthalene-1,22′-[20]oxa[13]thia[1,14]diazatetracyclo [14.7.2.0~3,6~.0~19,24~]pentacosa[8,16,18,24]tetraen]-15′-one 13′,13′-dioxide], the figures for the IC50 in assay [1] (setting [5]) and in assay [2] (setting [4]) were 4930 nM and 3.93 nM, respectively.

As for `CC(C)OC[C@]1(O)/C=C/C[C@H](C)[C@@H](C)S(=O)(=O)NC(=O)c2ccc3c(c2)N(C[C@@H]2CC[C@H]21)C[C@@]1(CCCc2cc(Cl)ccc21)CO3` [Example 100442, (1S,3′R,6′R,7′S,8′E,11′S,12′R)-6-chloro-7′-hydroxy-11′,12′-dimethyl-7′-((2-propanyloxy)methyl)-3,4-dihydro-2H,15′H-spiro[naphthalene-1,22′-[20]oxa[13]thia[1,14]diazatetracyclo [14.7.2.0~3,6~.0~19,24~]pentacosa[8,16,18,24]tetraen]-15′-one 13′,13′-dioxide], the figures for the IC50 in assay [1] (setting [3]) and in assay [2] (setting [4]) were 3870 nM and 0.921 nM, respectively.
